Assay results from publication PMC10804683, “Identification of the pyridoxal 5′‐phosphate allosteric site in human pyridox(am)ine 5′‐phosphate oxidase” (Protein Science : A Publication of the Protein Society, 2024).

Tests used:
[1] = molecular target: human PNPO wild type (holo-enzyme); parameters: method as in Barile et al. ([2020]); conditions: FMN fluorescence changes, ref Barile et al. ([2020]), read-out: PLP binding KD^FLUO; cited from earlier work
[2] = molecular target: T1, human PNPO 1-31del variant (holo-enzyme) (Homo sapiens, UniProt Q9NVS9); assay: PLP binding by FMN fluorescence changes, holo 1-31del; conditions: read-out: PLP binding KD^FLUO
T1 construct: a main form corresponding to the entire protein; made in house; host or cells: E. coli BL21(DE3)
T1 sequence (Q9NVS9 32-261): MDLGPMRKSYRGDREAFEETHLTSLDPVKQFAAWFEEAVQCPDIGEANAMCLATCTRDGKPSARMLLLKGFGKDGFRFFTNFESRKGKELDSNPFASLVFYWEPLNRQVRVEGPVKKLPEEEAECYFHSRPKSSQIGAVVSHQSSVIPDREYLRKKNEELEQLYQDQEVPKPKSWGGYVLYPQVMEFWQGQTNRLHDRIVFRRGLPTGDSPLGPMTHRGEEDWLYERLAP
Source text: In order to further confirm the location of the PNPO allosteric site, we made several attempts to obtain the crystal structure of the protein‐PLP complex. With the E. coli homologue, any attempt to obtain such a complex with the wild type protein yielded structures in which PLP was bound at the active site, and we could obtain a complex with PLP bound at the allosteric site only when we used a multiple variant form of the enzyme in which the capability to bind ligands at the active site was impaired (Barile et al., [2021]). On the basis of this previous experience, we carried out co‐crystallization attempts with either the wild type or the R225H variant of the human protein and PLP. […] We obtained crystals with both protein forms (Table S1); however, PLP was detected only in the active site of the wild type protein, thus a clear indication about the location of the allosteric site was missing. […] The most interesting features of the 1‐31del form are a lower KD for PLP binding (threefold lower with respect to wild type PNPO), which indicates a higher affinity for the allosteric site, and the related more marked allosteric inhibition, which is evident from the comparison of the reaction kinetics measured in TRIS and HEPES buffers (Figure 7). […]

Kd [2]: 310 ± 30 nM
SMILES: Cc1ncc(COP(=O)(O)O)c(C=O)c1O [PLP, pyridoxal 5′‐phosphate]
Kd [1]: 950 ± 10 nM
